# Measured values reported in patent US20230122911A1, “FORMULATIONS OF ENZALUTAMIDE” (Astellas Pharma Inc., priority 2012, published 2023).
# What was measured:
# Format in all cases: physicochemical
# [1] = Glass transition temperature (Tg) by modulated DSC
# Description: Below Tg, an amorphous material is said to be in a “glassy” state in which molecular mobility is severely restricted. […] Glass transition temperatures Tg were determined for amorphous enzalutamide, and for spray-dried dispersions (SDDs) of enzalutamide with HPMCAS-M or PVP-VA64, at <5% and 75% relative humidity (RH) Tgs were determined by modulated differential scanning calorimetry (mDSC), utilizing the following protocol. Samples (about 5 mg) were equilibrated at the desired RH overnight in an environmental chamber at ambient temperature. The samples were then loaded into pans and sealed inside the environmental chamber. The samples were analyzed on a Q1000 mDSC (TA Instruments, New Castle, Delaware). Samples were typically scanned over the temperature range of -40° C. to 180° C., at a scan rate of 2.5° C./min, and a modulation rate of ±1.5° C./min. […] The Tg was calculated based on half height.
# HME dispersions were produced using dry-powder blends of enzalutamide and HPMCAS-M or PVP VA at three different drug loadings: 25%A, 40%A, and 60%A. Using a volumetric powder feeder, the blends were fed at a controlled rate to a 7.5 \-mm MP&R™ Model ME7.5 Twin-Screw Extruder (MP&R, Hackensack, NJ). […] Table 11.1 presents the extrusion temperature, the crystallinity of the dispersion (amorphous is desired), and the glass transition temperature (Tg) measured by DSC.
# [2] = Crystallinity by PXRD (and DSC); details: after spray-drying
# [3] = Microcentrifuge dissolution before and after suspension for 2 hr in aqueous 0.5% methylcellulose
# Description: Drugs and drug formulations are sometimes dosed as aqueous suspensions, particularly for pediatric patients. The ability of various enzalutamide SDDs to retain their ability to maintain drug supersaturation in vitro was assessed by using the microcentrifuge dissolution test to measure drug dissolution after suspension in 0.5% methylcellulose in water for 2 hours. Methylcellulose is a standard viscosifying suspending agent which is used to maintain drug particles in suspension in oral suspension dosage forms. The table below presents in vitro dissolution performance before and after suspension in 0.5% methylcellulose.
# [4] = Microcentrifuge dissolution test in Model Fasted Duodenal Solution; details: for Enzalutamide Concentration / AUC90 (area under the curve at 90 minutes) / Cmax,90 (maximum drug concentration through 90 minutes): MFDS pH 6.5, dose 200 µg/ml; for AUC90 (area under the curve at 90 minutes) / Cmax,90 (maximum drug concentration through 90 minutes): Table 4.2; for Average enzalutamide concentration: Table 9.1
# Source text: The in vitro dissolution test to evaluate enhanced drug concentration in aqueous solution can be conducted by (1) adding with agitation a sufficient quantity of control composition, that is, the crystalline enzalutamide alone, to the in vitro test medium, typically MFD or PBS solution, to determine the maximum concentration of the enzalutamide achieved under the conditions of the test: (2) adding with agitation a sufficient quantity of test composition (e.g., the enzalutamide and polymer) in an equivalent test medium, such that if all the enzalutamide dissolved, the theoretical concentration of enzalutamide would exceed the observed maximum concentration of enzalutamide by a factor of about 20; and (3) comparing the measured MDC and/or aqueous concentration versus time AUC90 of the test composition in the test medium with the maximum concentration, and/or the aqueous concentration versus time AUC90 of the control composition. In conducting such a dissolution test, the amount of test composition or control composition used is an amount such that if all of the enzalutamide dissolved, the test enzalutamide concentration would be at least about 20-fold that of the control enzalutamide concentration.
# The concentration of dissolved enzalutamide is typically measured as a function of time by sampling the test medium and plotting enzalutamide concentration in the test medium vs. time so that the MDC can be ascertained. The MDC is taken to be the maximum value of dissolved enzalutamide measured over the duration of the test. The enzalutamide concentration versus time AUC90 is calculated by integrating the concentration versus time curve over any 90-minute time period between the time of introduction of the composition into the aqueous use environment (time equals zero) and 270 minutes following introduction to the use environment (time equals 270 minutes). Typically, when the composition reaches its MDC rapidly, in less than about 30 minutes, the time interval used to calculate AUC90 is from time equals zero to time equals 90 minutes. However, if the AUC90 over any 90-minute time period described above of a composition meets the criteria of compositions described herein, then the composition is included in compositions of this disclosure. The time period 270 min is chosen because of its physiological relevance. Drug absorption in mammals generally occurs in the small intestine, and the small intestinal transit time in humans is approximately 4.5 hr, or 270 min.
# To avoid large enzalutamide particulates which would give an erroneous determination, the test solution is either filtered or centrifuged. “Dissolved enzalutamide” is typically taken as that material that either passes a 0.45 micron syringe filter or, alternatively, the material that remains in the supernatant following centrifugation. Filtration can be conducted using a 13 mm, 0.45 micron polyvinylidine difluoride syringe filter, such as the filter sold by Scientific Resources under the trademark TITAN™. Centrifugation is typically carried out in a polypropylene microcentrifuge tube by centrifuging at 13.000 G for 60 seconds. Other similar filtration or centrifugation methods can be employed and useful results obtained. For example, using other types of microfilters may yield values somewhat higher or lower (+/- 10-40%) than that obtained with the filter specified above but will still allow identification of dispersions. It is recognized that this definition of “dissolved enzalutamide” encompasses not only monomeric solvated enzalutamide molecules but also a wide range of species such as polymer/enzalutamide assemblies that have submicron dimensions such as enzalutamide aggregates, aggregates of mixtures of polymer and enzalutamide, micelles, polymeric micelles, colloidal particles, polymer/enzalutamide complexes, and other such enzalutamide-containing species that are present in the filtrate or supernatant in the specified dissolution test. […]
# [5] = 0 hr, before suspension in 0.5% methylcellulose
# [6] = after suspension for 2 hr in aqueous 0.5% methylcellulose
# [7] = listed as Amorphous (spray-dried) enzalutamide
compound,measurement,setting,value
"CNC(=O)c1ccc(N2C(=S)N(c3ccc(C#N)c(C(F)(F)F)c3)C(=O)C2(C)C)cc1F [Amorphous enzalutamide, 4-{3-[4-cyano-3-(trifluoromethyl)phenyl]-5,5-dimethyl-4-oxo-2-sulfanylideneimidazolidin-1-yl}-2-fluoro-N-methylbenzamide]",Tg,[1]; 75% RH,64.0 °C
same,Tg,[1]; <5% RH,88.5 °C
same,crystallinity by PXRD,[2],completely amorphous
same,AUC90,[3]; [5],"8,900 min·mcg/ml"
same,Cmax 90,[3]; [5],110 µg/mL
same,AUC90,[3]; [6],"8,800 min·mcg/ml"
same,AUC90% of 0 Hr Value,[3]; [6],99%
same,Cmax 90,[3]; [6],100 µg/mL
same,Enzalutamide Concentration,[4]; 0 min,0.0 µg/mL
same,Enzalutamide Concentration,"[4]; 4 min, listed as Amorphous (spray-dried) enzalutamide",61 µg/mL
same,Enzalutamide Concentration,"[4]; 10 min, listed as Amorphous (spray-dried) enzalutamide",100 µg/mL
same,Enzalutamide Concentration,"[4]; 20 min, listed as Amorphous (spray-dried) enzalutamide",100 µg/mL
same,Enzalutamide Concentration,"[4]; 40 min, listed as Amorphous (spray-dried) enzalutamide",110 µg/mL
same,Enzalutamide Concentration,"[4]; 90 min, listed as Amorphous (spray-dried) enzalutamide",120 µg/mL
same,Enzalutamide Concentration,"[4]; 1200 min, listed as Amorphous (spray-dried) enzalutamide",30 µg/mL
same,AUC90 (area under the curve at 90 minutes),[4]; [7],"9,500 min*µg/mL"
same,"Cmax,90 (maximum drug concentration through 90 minutes)",[4]; [7],120 µg/mL
"CNC(=O)c1ccc(N2C(=S)N(c3ccc(C#N)c(C(F)(F)F)c3)C(=O)C2(C)C)cc1F [Control 1, 4-{3-[4-cyano-3-(trifluoromethyl)phenyl]-5,5-dimethyl-4-oxo-2-sulfanylideneimidazolidin-1-yl}-2-fluoro-N-methylbenzamide]",Enzalutamide Concentration,[4]; 4 min,1 µg/mL
same,Enzalutamide Concentration,[4]; 10 min,3 µg/mL
same,Enzalutamide Concentration,[4]; 20 min,5 µg/mL
same,Enzalutamide Concentration,[4]; 40 min,6 µg/mL
same,Enzalutamide Concentration,[4]; 90 min,7 µg/mL
same,Enzalutamide Concentration,[4]; 1200 min,9 µg/mL
same,AUC90 (area under the curve at 90 minutes),[4],500 µg·min/mL
same,"Cmax,90 (maximum drug concentration through 90 minutes)",[4],7 µg/mL
same,Average enzalutamide concentration,[4]; 0 min,0.32 µg/mL
same,Average enzalutamide concentration,[4]; 4 min,5.23 µg/mL
same,Average enzalutamide concentration,[4]; 10 min,8.04 µg/mL
same,Average enzalutamide concentration,[4]; 20 min,7.69 µg/mL
same,Average enzalutamide concentration,[4]; 40 min,8.65 µg/mL
same,Average enzalutamide concentration,[4]; 90 min,9.14 µg/mL
same,Average enzalutamide concentration,[4]; 1200 min,12.12 µg/mL
same,AUC90 min,[4]; Table 9.2,740 µg·min/mL
same,"Cmax,90 min",[4]; Table 9.2,10 µg/mL
